Data set [1] can be described thus: Human plasma stability. Format: in vitro ADME. The settings on record: 37° C. As to the method:
To determine the half life of the test compound in human plasma, incubations were performed at 37° C. in a shaking water bath. Compound (5 μl of 100 μM stock in MeCN) was spiked into 0.495 mL plasma to give final incubation concentration of 1 μM. Aliquots (50 μl) were withdrawn at various time points (typically 0, 20 & 40 sec, 1, 2, 3, 5 & 10 mins) and quenched into MeCN ([…]) followed by analysis for parent compound by LC-MS-MS (MRM mode). The half life was calculated from the decline of test compound peak area over time. • Example 1 (Compound (I)) gave a half life of 0.6 minutes (n=1). • Comparative Example 1 gave a half life of 0.2 minutes (n=1).

Data set [2] concerns the target T1, human TLR7 (Homo sapiens, UniProt Q9NYK1).
T1 construct: expressed in transfected cells; host or cells: HEK293 stably expressing pNiFty2-SEAP reporter; TLR7 in pUNO vector
T1 sequence (Q9NYK1 27-1049): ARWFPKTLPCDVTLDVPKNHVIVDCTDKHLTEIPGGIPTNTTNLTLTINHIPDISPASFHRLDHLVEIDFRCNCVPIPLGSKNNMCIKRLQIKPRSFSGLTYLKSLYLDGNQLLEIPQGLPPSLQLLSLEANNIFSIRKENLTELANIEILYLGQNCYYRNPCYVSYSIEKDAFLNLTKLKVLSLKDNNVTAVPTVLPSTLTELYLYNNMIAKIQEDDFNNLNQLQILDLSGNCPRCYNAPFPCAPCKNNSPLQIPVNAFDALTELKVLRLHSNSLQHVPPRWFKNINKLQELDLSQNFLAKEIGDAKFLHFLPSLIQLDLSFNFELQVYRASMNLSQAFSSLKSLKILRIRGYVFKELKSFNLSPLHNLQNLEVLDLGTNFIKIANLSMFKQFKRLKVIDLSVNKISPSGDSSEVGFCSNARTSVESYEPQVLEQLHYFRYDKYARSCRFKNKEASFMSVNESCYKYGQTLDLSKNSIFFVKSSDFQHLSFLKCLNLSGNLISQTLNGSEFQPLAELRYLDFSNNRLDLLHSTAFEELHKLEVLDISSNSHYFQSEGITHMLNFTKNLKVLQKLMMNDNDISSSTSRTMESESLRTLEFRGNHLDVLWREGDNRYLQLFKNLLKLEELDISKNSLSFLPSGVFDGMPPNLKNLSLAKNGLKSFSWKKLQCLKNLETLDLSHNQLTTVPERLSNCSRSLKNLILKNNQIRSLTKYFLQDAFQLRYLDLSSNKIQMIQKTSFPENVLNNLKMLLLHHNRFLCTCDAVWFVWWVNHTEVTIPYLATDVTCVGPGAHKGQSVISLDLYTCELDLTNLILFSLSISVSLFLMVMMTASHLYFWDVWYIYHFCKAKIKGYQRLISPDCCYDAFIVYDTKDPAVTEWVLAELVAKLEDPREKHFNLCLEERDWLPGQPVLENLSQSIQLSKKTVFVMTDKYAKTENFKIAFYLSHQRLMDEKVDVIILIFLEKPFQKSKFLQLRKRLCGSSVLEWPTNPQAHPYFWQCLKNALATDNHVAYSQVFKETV
In words: Human TLR7 assay (SEAP reporter in HEK293 cells). Format: cell-based. To be noted: HEK293 cells expressing recombinant human TLR7, overnight incubation at 37° C., 0.1% DMSO; read-out: mean pEC50 (SEAP induction) (converted). From the text: Recombinant human TLR7 was stably expressed in a HEK293 cell line already stably expressing the pNiFty2-SEAP reporter plasmid; integration of the reporter gene was maintained by selection with the antibiotic zeocin. The most common variant sequence of human TLR7 (represented by the EMBL sequence AF240467) was cloned into the mammalian cell expression vector pUNO and transfected into this reporter cell-line. Transfectants with stable expression were selected using the antibiotic blasticidin. In this reporter cell-line, expression of secreted alkaline phosphatase (SEAP) is controlled by an NFkB/ELAM-1 composite promoter comprising five NFkB sites combined with the proximal ELAM-1 promoter. TLR signaling leads to the translocation of NFkB and activation of the promoter results in expression of the SEAP gene. TLR7-specific activation was assessed by determining the level of SEAP produced following overnight incubation of the cells at 37° C. with the standard compound in the presence of 0.1% (v/v) dimethylsulfoxide (DMSO). […] Human Skin Cytokine Production

Data set [3] deals with T2, CYP1A2 (Homo sapiens, UniProt P05177).
T2 construct: made in house; host or cells: E. coli (membranes)
T2 sequence (P05177 1-516): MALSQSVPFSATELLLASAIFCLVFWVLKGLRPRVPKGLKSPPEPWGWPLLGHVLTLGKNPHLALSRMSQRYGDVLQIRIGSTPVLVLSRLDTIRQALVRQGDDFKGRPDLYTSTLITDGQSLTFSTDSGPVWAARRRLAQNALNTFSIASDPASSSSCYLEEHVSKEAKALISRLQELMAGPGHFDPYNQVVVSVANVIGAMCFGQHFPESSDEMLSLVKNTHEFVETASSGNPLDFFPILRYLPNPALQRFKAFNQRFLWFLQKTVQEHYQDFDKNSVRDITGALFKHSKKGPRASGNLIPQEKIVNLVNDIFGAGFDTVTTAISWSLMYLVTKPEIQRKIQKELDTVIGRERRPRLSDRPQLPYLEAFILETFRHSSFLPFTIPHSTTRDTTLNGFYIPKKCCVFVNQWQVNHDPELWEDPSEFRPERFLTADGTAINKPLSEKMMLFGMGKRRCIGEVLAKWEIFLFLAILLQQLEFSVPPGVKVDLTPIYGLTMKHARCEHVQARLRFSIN
Put plainly: CYP inhibition. Format: in vitro ADME. To be noted: expressed in E. coli membranes, substrate phenacetin, LC-MS-MS; read-out: Mean pIC50 CYP1A2 (converted). As to the method:
(§1) The five major human hepatic Cytochrome P450 isoforms, 1A2, 2C9, 2C19, 2D6 and 3A4 were heterologously expressed in E. coli membranes. Each of the five CYPs were incubated with a cocktail of specific substrates; phenacetin, diclofenac, 5-mephenyloin, bufuralol and midazolam, which are predominantly metabolised by CYP 1A2, 2C9, 2C19, 2D6 and 3A4 respectively plus the test compound.
(§2) The substrates were incubated, at concentrations equivalent to their respective Km values, and LC-MS-MS (MRM mode) was used in order to follow the formation of their specific metabolites. The ability of the test compound to inhibit the CYP isoforms was determined by following any decrease in the amount of the specific metabolites formed at six different inhibitor concentrations.
(§3) The rates of reaction were calculated by measuring MS/MS area units and data analysis was performed by linearising the data using a pseudo Hill plot. The IC50 ie the concentration of the test compound that decreases the amount of metabolite formed by 50% was determined.

Data set [4] concerns the target T3, CYP3A4 (Homo sapiens, UniProt P08684).
T3 construct: made in house; host or cells: E. coli (membranes)
In words: CYP inhibition. Format: in vitro ADME. To be noted: expressed in E. coli membranes, substrate midazolam, LC-MS-MS; read-out: Mean pIC50 CYP3A4 (converted). As to the method: as §1, §2, §3

The target of data set [5] is T4, CYP2C19 (Homo sapiens, UniProt P33261).
T4 construct: made in house; host or cells: E. coli (membranes)
Put plainly: CYP inhibition. To be noted: expressed in E. coli membranes, substrate 5-mephenyloin, LC-MS-MS; read-out: Mean pIC50 CYP2C19 (converted). Format: in vitro ADME. As to the method: as §1, §2, §3

Data set [6] addresses T5, CYP2C9 (Homo sapiens, UniProt P11712).
T5 construct: made in house; host or cells: E. coli (membranes)
Put plainly: CYP inhibition. Format: in vitro ADME. To be noted: expressed in E. coli membranes, substrate diclofenac, LC-MS-MS; read-out: Mean pIC50 CYP2C9 (converted). The method, then:
as §1, §2, §3

Data set [7] deals with T6, CYP2D6 (Homo sapiens, UniProt P10635).
T6 construct: made in house; host or cells: E. coli (membranes)
Put plainly: CYP inhibition. Format: in vitro ADME. To be noted: expressed in E. coli membranes, substrate bufuralol, LC-MS-MS; read-out: Mean pIC50 CYP2D6 (converted). As to the method: as §1, §2, §3

Data set [8] can be described thus: Maximal solubility in phosphate citrate buffer pH 3.0. Format: physicochemical.
Data set [9] has as its system interleukin-13 (IL-13) production in human skin biopsies. Put plainly: Human skin cytokine production (PHA-induced IL-13 in skin biopsies). The settings on record: PHA-stimulated human skin biopsies, 24 hours. Format: cell-based. As to the method:
Normal human skin biopsies were obtained, with informed consent, from healthy patients undergoing surgical cosmetic procedures. 3 mm full thickness skin biopsies were taken using a biopsy punch. A hole was cut in a Transwell filter (pore size 0.4 μm) using a punch and the skin biopsy inserted in the hole. The filter containing the biopsy was placed in the well of a 24-well culture plate containing 1.25 ml of culture medium (RPMI containing 1% heat-inactivated human serum) with the epidermis facing upwards at the liquid-air interface. Culture plates containing the biopsies were incubated at 37° C., in an atmosphere of 5% CO2 in air, for 24 hours. Biopsies were cultured in the absence or presence of phytohaemagglutinin (PHA) (1 mg/ml) added to the culture medium to induce a cytokine response in the tissue.

Where [10] appears, read: compound applied topically at 1/10 max. solubility.
Where [11] appears, read: compound applied topically at max. solubility.

T3 sequence (P08684 whole entry): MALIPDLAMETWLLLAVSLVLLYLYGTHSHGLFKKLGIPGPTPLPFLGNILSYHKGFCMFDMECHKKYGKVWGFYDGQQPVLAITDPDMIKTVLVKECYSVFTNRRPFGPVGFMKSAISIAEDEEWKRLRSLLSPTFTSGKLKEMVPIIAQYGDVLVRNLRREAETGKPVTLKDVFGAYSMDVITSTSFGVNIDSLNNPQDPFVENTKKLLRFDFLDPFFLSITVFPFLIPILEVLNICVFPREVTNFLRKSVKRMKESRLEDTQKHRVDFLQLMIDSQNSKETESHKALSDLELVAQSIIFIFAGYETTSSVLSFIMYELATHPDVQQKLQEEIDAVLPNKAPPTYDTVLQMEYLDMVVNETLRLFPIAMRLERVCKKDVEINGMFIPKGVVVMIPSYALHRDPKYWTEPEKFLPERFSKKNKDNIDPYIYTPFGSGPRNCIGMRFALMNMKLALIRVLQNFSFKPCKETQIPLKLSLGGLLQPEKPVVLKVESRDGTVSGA
T6 sequence (P10635 whole entry): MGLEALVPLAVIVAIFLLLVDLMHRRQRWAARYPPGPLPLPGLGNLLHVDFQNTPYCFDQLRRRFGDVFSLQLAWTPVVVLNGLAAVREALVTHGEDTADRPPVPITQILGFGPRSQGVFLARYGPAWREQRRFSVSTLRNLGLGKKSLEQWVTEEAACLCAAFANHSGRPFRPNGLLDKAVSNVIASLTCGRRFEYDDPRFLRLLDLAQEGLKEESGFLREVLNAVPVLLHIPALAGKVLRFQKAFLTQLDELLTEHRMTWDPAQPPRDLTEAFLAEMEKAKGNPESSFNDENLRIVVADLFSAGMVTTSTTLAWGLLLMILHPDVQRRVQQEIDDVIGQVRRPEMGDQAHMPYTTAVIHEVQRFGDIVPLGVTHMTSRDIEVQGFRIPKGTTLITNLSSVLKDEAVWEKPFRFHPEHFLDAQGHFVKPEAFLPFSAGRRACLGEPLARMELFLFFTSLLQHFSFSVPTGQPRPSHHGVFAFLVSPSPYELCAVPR
T4 sequence (P33261 whole entry): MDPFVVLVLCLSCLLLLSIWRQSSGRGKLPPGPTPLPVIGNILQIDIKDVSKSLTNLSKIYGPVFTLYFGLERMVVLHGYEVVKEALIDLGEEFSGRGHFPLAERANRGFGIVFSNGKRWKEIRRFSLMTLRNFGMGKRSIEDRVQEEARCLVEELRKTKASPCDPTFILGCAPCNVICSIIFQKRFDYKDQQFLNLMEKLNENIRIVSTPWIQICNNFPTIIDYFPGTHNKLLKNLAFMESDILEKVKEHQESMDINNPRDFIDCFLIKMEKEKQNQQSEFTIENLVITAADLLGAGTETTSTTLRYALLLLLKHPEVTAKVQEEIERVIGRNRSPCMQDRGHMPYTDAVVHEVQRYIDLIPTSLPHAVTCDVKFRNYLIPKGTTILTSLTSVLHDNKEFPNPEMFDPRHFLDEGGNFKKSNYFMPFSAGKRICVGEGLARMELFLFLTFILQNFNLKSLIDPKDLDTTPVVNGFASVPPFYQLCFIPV
T5 sequence (P11712 whole entry): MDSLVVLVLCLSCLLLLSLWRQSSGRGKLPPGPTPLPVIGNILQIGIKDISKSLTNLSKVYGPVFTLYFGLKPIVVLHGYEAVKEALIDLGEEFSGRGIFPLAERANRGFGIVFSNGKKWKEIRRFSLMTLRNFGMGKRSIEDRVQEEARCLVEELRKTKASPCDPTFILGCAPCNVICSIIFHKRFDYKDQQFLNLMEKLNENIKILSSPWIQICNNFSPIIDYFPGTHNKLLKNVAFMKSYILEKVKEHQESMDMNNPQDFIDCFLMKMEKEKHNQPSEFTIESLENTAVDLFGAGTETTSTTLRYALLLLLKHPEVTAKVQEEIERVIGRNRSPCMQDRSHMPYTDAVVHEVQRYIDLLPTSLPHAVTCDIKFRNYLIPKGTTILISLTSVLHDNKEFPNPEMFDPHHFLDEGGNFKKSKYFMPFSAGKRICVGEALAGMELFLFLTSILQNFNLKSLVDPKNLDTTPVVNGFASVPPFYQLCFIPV

Take `CCCCOc1nc(N)c2[nH]c(=O)n(CCCN(CCCN3CCCCC3)Cc3cccc(CC(=O)OC)c3)c2n1` [Comparative Example 1, Methyl [3-({[3-(6-amino-2-butoxy-8-oxo-7,8-dihydro-9H-purin-9-yl)propyl][3-(piperidin-1-yl)propyl]amino}methyl)phenyl]acetate, reference compound]: in [1], the half-life at 1 μM was determined as 12 s. Also, the EC50 in [2] was 0.158 µM. Besides, the IC50 was more than 30.2 µM in data set [3]; 0.0132 µM in [4]; more than 30.2 µM in data set [5]; more than 29.5 µM in data set [6]; 13.5 µM in [7].

As for `CCCCOc1nc(N)c2[nH]c(=O)n(CCCN(CCCN3CCCCC3)Cc3ccc(CC(=O)OC)cc3)c2n1` [Example 1, Methyl [4-({[3-(6-amino-2-butoxy-8-oxo-7,8-dihydro-9H-purin-9-yl)propyl][3-(piperidin-1-yl)propyl]amino}methyl)phenyl]acetate], the half-life at 1 μM in data set [1] was found to be 36 s. Moreover, the EC50 in data set [2] is 0.251 µM. For the same molecule, the IC50 in data set [3] was more than 3.02 µM; in data set [4], 0.468 µM; in [5] it was more than 3.02 µM; in data set [6] it was more than 3.02 µM; in [7], more than 3.02 µM. Also, the “maximal solubility in phosphate citrate buffer pH 3.0” value in data set [8] was 4.1-4.4 % w/w. The “% Inhibition of response” value in [9] (setting [10]) is 55%; in [9] (setting [11]), 87%. Besides, the “IL-13 (pg/ml) Mean ± SEM” value in [9] (setting [10]) worked out at 4.8 ± 0.8 pg/mL; in [9] (setting [11]), 1.9 ± 0.8 pg/mL.

(Values after patent US8895570B2, “Purine derivatives” (AstraZeneca AB, priority 2010, dated 2014).)
